Our source for the remaining activity values is patent US8853420B2, “Compounds” (Boehringer Ingelheim International GmbH, priority 2008, dated 2014).

Structures are written as SMILES.

T1 sequence (Q6DE08 60-361): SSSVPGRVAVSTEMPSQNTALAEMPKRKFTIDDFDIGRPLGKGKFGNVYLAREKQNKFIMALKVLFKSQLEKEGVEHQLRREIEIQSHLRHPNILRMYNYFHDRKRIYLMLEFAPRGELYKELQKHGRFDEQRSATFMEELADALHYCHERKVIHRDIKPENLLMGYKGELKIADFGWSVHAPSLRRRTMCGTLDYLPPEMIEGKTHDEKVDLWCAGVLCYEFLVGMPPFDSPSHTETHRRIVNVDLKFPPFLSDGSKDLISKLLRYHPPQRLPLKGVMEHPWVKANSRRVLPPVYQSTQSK
T1 sequence (O13024 790-847 partner limits assumed): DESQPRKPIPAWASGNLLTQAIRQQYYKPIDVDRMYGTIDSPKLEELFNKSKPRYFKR

This experiment has as its target T1, Xenopus laevis Aurora B/INCENP complex (Xenopus laevis, UniProt Q6DE08).
T1 construct: equipped at the N-terminal position with a GST tag (amino acids 60-361); GST (N, cleaved yes); made in house; host or cells: E. coli BL21 (DE3)
The experiment can be described thus: Aurora-B kinase assay (radioactive enzyme inhibition assay). As to conditions: test substance at 1 μM; percentage of the positive control (maximum value without test substance). The experiment is classed as biochemical. The text has this:
Example Aurora-B Kinase Assay
A radioactive enzyme inhibition assay was developed using E. coli-expressed recombinant Xenopus laevis Aurora B wild-type protein equipped at the N-terminal position with a GST tag (amino acids 60-361) in a complex with Xenopus laevis INCENP (amino acids 790-847), which is obtained from bacteria and purified. In equivalent manner a Xenopus laevis Aurora B mutant (G96V) in a complex with Xenopus laevis INCENP^790-847 may also be used.
Expression and Purification
The coding sequence for Aurora-B^60-361 from Xenopus laevis is cloned into a modified version of pGEX-6T (Amersham Biotech) via BamHI and SalI cutting sites. The vector contains two cloning cassettes which are separated by a ribosomal binding site, allowing bi-cistronic expression. In this configuration Xenopus laevis Aurora B is expressed by the first cassette, and the Xenopus laevis INCENP^790-847 is expressed by the second cassette. The resulting vector is pAUB-IN^847.
First of all the E. coli strain BL21 (DE3) is co-transformed with pUBS520 helper plasmid and pAUB-IN^847, after which protein expression is induced using 0.3 mM IPTG at an OD600 of 0.45-0.7. The expression is then continued for approx. 12-16 h at 23-25° C. with agitation.
The bacteria are then removed by centrifuging and the pellet is lysed in lysis buffer (50 mM Tris/Cl pH 7.6, 300 mM NaCl, 1 mM DTT, 1 mM EDTA, 5% glycerol, Roche Complete Protease Inhibitor tablets) using ultrasound, using 20-30 mL lysis buffer per liter of E. coli culture. The lysed material is freed from debris by centrifugation (12000 rpm, 45-60 min, JA20 rotor). The supernatant is incubated with 300 μL of equilibrated GST Sepharose Fast Flow (Amersham Biosciences) per liter of E. coli culture for 4-5 h at 4° C. Then the column material is washed with 30 volumes of lysis buffer and then equilibrated with 30 volumes of cleavage buffer (50 mM Tris/Cl pH 7.6, 150 mM NaCl, 1 mM DTT, 1 mM EDTA). To cleave the GST tag from Aurora B, 10 units of Prescission Protease (Amersham Biosciences) are used per milligram of substrate and the mixture is incubated for 16 h at 4° C. The supernatant which contains the cleavage product is loaded onto a 6 mL Resource Q column (Amersham Biosciences) equilibrated with ion exchange buffer (50 mM Tris/Cl pH 7.6, 150 mM NaCl, 1 mM DTT, 1 mM EDTA). The Aurora B/INCENP complex is caught as it flows through, then concentrated and loaded onto a Superdex 200 size exclusion chromatography (SEC) column equilibrated with SEC buffer (10 mM Tris/Cl pH 7.6, 150 mM NaCl, 1 mM DTT, 1 mM EDTA). Fractions which contain the AuroraB/INCENP complex are collected and concentrated using Vivaspin concentrators (molecular weight exclusion 3000-5000 Da) to a final concentration of 12 mg/mL. Aliquots (e.g. 240 ng/μL) for kinase assays are transferred from this stock solution into freezing buffer (50 mM Tris/Cl pH 8.0, 150 mM NaCl, 0.1 mM EDTA, 0.03% Brij-35, 10% glycerol, 1 mM DTT) and stored at −80° C.
Test substances are placed in a polypropylene dish (96 wells, Greiner #655 201), in order to cover a concentration frame of 10 μM-0.0001 μM. The final concentration of DMSO in the assay is 5%. 30 μL of protein mix (50 mM tris/Cl pH 7.5, 25 mM MgCl2, 25 mM NaCl, 167 μM ATP, 10 ng Xenopus laevis Aurora B/INCENP complex in freezing buffer) are pipetted into the 10 μl of test substance provided in 25% DMSO and this is incubated for 15 min at RT. Then 10 μL of peptide mix (100 mM tris/Cl pH 7.5, 50 mM MgCl2, 50 mM NaCl, 5 μM NaF, 5 μM DTT, 1 μCi gamma-P33-ATP [Amersham], 50 μM substrate peptide [biotin-[…] or multimers thereof, or biotin-[…] or multimers thereof, or biotin-[…]]) are added. The reaction is incubated for 75 min (ambient temperature) and stopped by the addition of 180 μL of 6.4% trichloroacetic acid and incubated for 20 min on ice. […]
As for `CC(=O)Nc1ccc(-c2ccc3c(c2)NC(=O)/C3=C(\Nc2ccc(CN(C)C)cc2)c2ccccc2)cc1` [Example 72], the remaining activity (in general, the signal under treatment as a percentage of the control signal) at 1 µM was determined as 3.37%. Take `CC(C)Nc1ncc(-c2cc3c(cc2F)/C(=C(/Nc2ccc(CN(C)C)cc2)c2ccccc2)C(=O)N3)cn1` [Example 73]: the remaining activity at 1 µM was 5.59%. `CC(C)Nc1ncc(-c2ccc3c(c2)NC(=O)/C3=C(\Nc2ccc(N(C)C(=O)CN(C)C)cc2)c2ccccc2)cn1` [Example 75]: the remaining activity at 1 µM was determined as 1.74%. Then `CC(C)Nc1ncc(-c2ccc3c(c2)NC(=O)/C3=C(\NC2CCOCC2)c2ccccc2)cn1` [Example 77], with 96.2%; and `CC(C)Nc1ncc(-c2ccc3c(c2)NC(=O)/C3=C(\NC2CCN(C)CC2)c2ccccc2)cn1` [Example 79], with 103%. As for `COc1cc(N/C(=C2\C(=O)Nc3cc(-c4cnc(NC(C)C)nc4)ccc32)c2ccccc2)ccc1C(=O)O` [Example 80], the remaining activity at 1 µM amounted to 2.32%. For the compound `CC(C)Nc1ncc(-c2ccc3c(c2)NC(=O)/C3=C(\Nc2ccc(C(C)(C)C(=O)O)cc2)c2ccccc2)cn1` [Example 81], the remaining activity at 1 µM is 1.26%. Regarding `COC(=O)C(C)(C)c1ccc(N/C(=C2\C(=O)Nc3cc(-c4cnc(NC(C)C)nc4)ccc32)c2ccccc2)cc1` [Example 82], the remaining activity at 1 µM was 5.13%. For `CC(C)Nc1ncc(-c2ccc3c(c2)NC(=O)/C3=C(\Nc2ccc(C(=O)O)cc2)c2ccccc2)cn1` [Example 83], the remaining activity at 1 µM amounted to 1.04%. With `COC(=O)c1ccc(N/C(=C2\C(=O)Nc3cc(-c4cnc(NC(C)C)nc4)ccc32)c2ccccc2)cc1` [Example 84] the figure was 65.2%; with `CNc1ccc(N/C(=C2\C(=O)Nc3cc(-c4cnc(NC(C)C)nc4)ccc32)c2ccccc2)cc1` [Example 85], 50.3%; with `CC(C)Nc1ncc(-c2ccc3c(c2)NC(=O)/C3=C(\Nc2ccc(N3CCN(C)CC3)nc2)c2ccccc2)cn1` [Example 86], 16.8%. Then `Cc1cc(N/C(=C2\C(=O)Nc3cc(-c4cnc(NC(C)C)nc4)ccc32)c2ccccc2)ccn1` [Example 87], with 2.67%; and `CC(C)Nc1ncc(-c2ccc3c(c2)NC(=O)/C3=C(\Nc2ccc(OCCN3CCCC3)cc2)c2ccccc2)cn1` [Example 88], with 3.13%. Then `CC(C)Nc1ncc(-c2ccc3c(c2)NC(=O)/C3=C(\Nc2ccc(OCCCN(C)C)cc2)c2ccccc2)cn1` [Example 89], with 5.97%. For the compound `CC(C)Nc1ncc(-c2ccc3c(c2)NC(=O)/C3=C(\Nc2cccc(CN3CCCC3)c2)c2ccccc2)cn1` [Example 91], the remaining activity at 1 µM worked out at 9.48%.

With `CC(C)Nc1ncc(-c2ccc3c(c2)NC(=O)/C3=C(\Nc2ccc(N3CCN(C)CC3)cc2)c2ccccc2)cn1` [Example 92], the remaining activity at 1 µM amounted to 3.85%. Then `CC(C)Nc1ncc(-c2ccc3c(c2)NC(=O)/C3=C(\Nc2ccc(N3CCN(C)[C@@H](C)C3)cc2)c2ccccc2)cn1` [Example 93], with 2.92%; and `CC(C)Nc1ncc(-c2ccc3c(c2)NC(=O)/C3=C(\Nc2ccc3c(c2)CN(C)C3)c2ccccc2)cn1` [Example 94], with 5.83%. Turning to `CC(C)Nc1ccc(-c2ccc3c(c2)NC(=O)/C3=C(\Nc2ccc(C(C)(C)C(=O)N3CCN[C@@H](C)C3)cc2)c2ccccc2)cn1` [Example 99], the remaining activity at 1 µM turned out to be 4.64%. For the compound `CC(C)Nc1ccc(-c2ccc3c(c2)NC(=O)/C3=C(\Nc2ccc(C(C)(C)C(=O)N3CC[C@H](N(C)C)C3)cc2)c2ccccc2)cn1` [Example 100], the remaining activity at 1 µM worked out at 3.36%. With `CC(C)Nc1ccc(-c2ccc3c(c2)NC(=O)/C3=C(\Nc2ccc(C(C)(C)C(=O)N3CC[C@@H](N(C)C)C3)cc2)c2ccccc2)cn1` [Example 101], the remaining activity at 1 µM came to 3.62%. Take `CC(C)Nc1ccc(-c2ccc3c(c2)NC(=O)/C3=C(\Nc2ccc(C(C)(C)C(=O)NC3CCN(C)CC3)cc2)c2ccccc2)cn1` [Example 102]: the remaining activity at 1 µM was found to be 2.07%. As to `CC(C)Nc1ccc(-c2ccc3c(c2)NC(=O)/C3=C(\Nc2ccc(C(C)(C)C(=O)N(C)C3CCN(C)CC3)cc2)c2ccccc2)cn1` [Example 103], the remaining activity at 1 µM worked out at 3.84%. On to `CCN1CCC2(CCN(C(=O)c3ccc(N/C(=C4\C(=O)Nc5cc(-c6ccc(NC(C)C)nc6)ccc54)c4ccccc4)cc3OC)C2)C1` (stereo not drawn) [Example 104], for which the remaining activity at 1 µM was 1.71%. For the compound `COc1cc(N/C(=C2\C(=O)Nc3cc(-c4ccc(NC(C)C)nc4)ccc32)c2ccccc2)ccc1C(=O)N1CCCN(C)CC1` [Example 105], the remaining activity at 1 µM was determined as 1.57%. With `COc1cc(N/C(=C2\C(=O)Nc3cc(-c4ccc(NC(C)C)nc4)ccc32)c2ccccc2)ccc1C(=O)N1CCN(C(C)C)CC1` [Example 106] the figure was 2.94%. Then `COc1cc(N/C(=C2\C(=O)Nc3cc(-c4ccc(NC(C)C)nc4)ccc32)c2ccccc2)ccc1C(=O)N1CCC(N(C)C)CC1` [Example 107], with 1.66%. With `COc1cc(N/C(=C2\C(=O)Nc3cc(-c4ccc(NC(C)C)nc4)ccc32)c2ccccc2)ccc1C(=O)N1C[C@H]2C[C@@H]1CN2C` [Example 108] the figure was 1.45%. For the compound `COc1cc(N/C(=C2\C(=O)Nc3cc(-c4ccc(NC(C)C)nc4)ccc32)c2ccccc2)ccc1C(=O)N1CCN(C)CC1` [Example 109], the remaining activity at 1 µM amounted to 2.08%. Regarding `COc1cc(N/C(=C2\C(=O)Nc3cc(-c4ccc(NC(C)C)nc4)ccc32)c2ccccc2)ccc1C(=O)N1CC[C@H](N(C)C)C1` [Example 110], the remaining activity at 1 µM was determined as 1.54%.

In the case of `COc1cc(N/C(=C2\C(=O)Nc3cc(-c4ccc(NC(C)C)nc4)ccc32)c2ccccc2)ccc1C(=O)N(C)CCN(C)C` [Example 111], the remaining activity at 1 µM was 2.35%. Then `COc1cc(N/C(=C2\C(=O)Nc3cc(-c4ccc(NC(C)C)nc4)ccc32)c2ccccc2)ccc1C(=O)N(C)C1CCN(C)CC1` [Example 112], with 1.7%. With `CCN1CCN(C(=O)c2ccc(N/C(=C3\C(=O)Nc4cc(-c5ccc(NC(C)C)nc5)ccc43)c3ccccc3)cc2)CC1` [Example 113] the figure was 4.25%. Then `CC(C)CN1CCN(C(=O)c2ccc(N/C(=C3\C(=O)Nc4cc(-c5ccc(NC(C)C)nc5)ccc43)c3ccccc3)cc2)CC1` [Example 114], with 7.11%; and `CC(C)Nc1ccc(-c2ccc3c(c2)NC(=O)/C3=C(\Nc2ccc(C(=O)N3CCN[C@H](C)C3)cc2)c2ccccc2)cn1` [Example 115], with 3.25%; and `CCN1CCC2(CCN(C(=O)c3ccc(N/C(=C4\C(=O)Nc5cc(-c6ccc(NC(C)C)nc6)ccc54)c4ccccc4)cc3)C2)C1` (stereo not drawn) [Example 117], with 3.03%.

Consider `CC(C)Nc1ccc(-c2ccc3c(c2)NC(=O)/C3=C(\Nc2ccc(C(=O)N3CCN(CC4CC4)CC3)cc2)c2ccccc2)cn1` [Example 118], for which the remaining activity at 1 µM was determined as 4.44%. Turning to `CC(C)Nc1ccc(-c2ccc3c(c2)NC(=O)/C3=C(\Nc2ccc(C(=O)N3CCCN(C4CC4)CC3)cc2)c2ccccc2)cn1` [Example 119], the remaining activity at 1 µM worked out at 3.54%.
